Results on 2 compounds are retold here after US20240307325A1, “COMPOUNDS, COMPOSITIONS, AND METHODS FOR TREATING OR AMELIORATING NONALCOHOLIC FATTY LIVER DISEASE AND RELATED DISEASES OR DISORDERS” (Thomas Jefferson University, priority 2021, published 2024).

Data set [1] concerns CEREP Safety 44 panel. In words: CEREP Safety 44 panel screen.
Data set [2] can be described thus: Oral bioavailability. The conditions noted are these: in vivo.
Data set [3] deals with mouse. Nature of the data set: Tumor xenograft experiments with daily oral dosing: tolerability. The conditions noted are these: daily oral dosing extended beyond 4 weeks. Format: in vivo.
Data set [4] has as its system HFD fed mice. Nature of the data set: High fat diet-induced hepatic steatosis and whitening of brown adipose tissue in mice. Format: in vivo. The conditions noted are these: versus vehicle, H&E staining. The source says:
FIG. 6A illustrate certain aspects of the study design. […] FIG. 6B show H&E staining images of liver from mice in FIG. 6A. […] Representative images from H&E-stained BAT of mice after an 8-week HFD. Images taken at 14×, scalebar=200 um.
(§1) Refer to FIGS. 5 and 6A-6C, pharmacological inhibition of Sigma1 phenocopy certain aspects of Sigma1 knockdown. […] The small molecule inhibitor IPAG also eliminate oleic acid, cholesterol, and glucose induced lipid droplets by lipophagy (FIG. 5).

Data set [5] has as its system TNFα. Nature of the data set: Pro-inflammatory cytokine levels in HT-29 cells: TNFα. Format: cell-based, human. The text has this: (§2) The fibrosis associated pro-inflammatory cytokines include soluble IL-6, TNFα, and IL-17, which are contributors to the progression of NAFLD to NASH with fibrosis.
Data set [6] concerns IL-17. In words: Pro-inflammatory cytokine levels in HT-29 cells: IL-17. Format: cell-based, human.
Source text: as §2

The target in data set [7] is Sigma1 (Homo sapiens, UniProt Q99720). The conditions noted are these: read-out: Ki (binds Sigma1).
Data set [8] relates to liver. The conditions noted are these: even at doses that exceed the concentrations proposed herein; cited from earlier work.
Data set [9] relates to LNCaP cells. In words: DHT-induced lipid droplet formation and accumulation in LNCaP cells (confocal, HCS-LipidTox stain). Format: cell-based. The conditions noted are these: 72 h 1 nM DHT, compound 10 uM for the final 16 hours. The procedure: FIGS. 4A-4B illustrate the finding that Sigma1 (σ1) knockdown by transduction of SIGMAR1 targeted shRNA using a lentiviral vector abrogates lipid droplet (LD) accumulation, in accordance with some embodiments. FIG. 4A: Confocal micrographs of LNCaP cells treated with 72 hours (72 h) with dihydrotestosterone (DHT) to induce the formation and accumulation of LDs. Non-specific Control shRNA was compared to SIGMAR1 transcript selective shRNAs in lentiviral vectors. σ1 shR #4=MISSION/SigmaAldrich clone TRCN0000061010: σ1 shR #5=MISSION/SigmaAldrich clone TRCN0000061008. White boxes indicate areas magnified and shown immediately below. Note nearly complete elimination of LDs. FIG. 4B: Immunoblot confirming knockdown of Sigma1 by lentiviral Sigma1 (σ1) shRNAs. LDs are stained with HCS-LipidTox fluorescent stain in red. Blue DAPI stained nuclei.
FIG. 5 illustrates the finding that pharmacological Sigma1 modulator/inhibitor 1-(4-Iodophenyl)-3-(2-adamantyl)guanidine (IPAG) eliminates lipid droplets (LDs), in accordance with some embodiments. Confocal micrographs of LNCaP cells treated with 72 hours (72 h) with 1 nM dihydrotestosterone (DHT) to induce the formation and accumulation of LDs. In the far right panel, the LNCaP cells were treated with a prototypic Sigma1 selective small molecule compound, IPAG (10 uM), for the final 16 hours of the 72 h DHT treatment period. […]

For data set [10], the system named is lipid droplets. Nature of the data set: Oleic acid, cholesterol and glucose induced lipid droplets. The conditions noted are these: by lipophagy. Format: cell-based.
Source text: as §1

As a reminder, the Ki is a measure of affinity in units of concentration, obtained from inhibition or displacement.

Sequence of Sigma1 (Q99720 whole entry): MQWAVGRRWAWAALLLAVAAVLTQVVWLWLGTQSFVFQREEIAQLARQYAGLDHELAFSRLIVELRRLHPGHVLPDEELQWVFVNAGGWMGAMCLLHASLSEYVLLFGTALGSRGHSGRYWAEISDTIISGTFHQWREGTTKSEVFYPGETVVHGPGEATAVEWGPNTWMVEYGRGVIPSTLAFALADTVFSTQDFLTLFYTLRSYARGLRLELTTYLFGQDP

For `N=C(NCCCOc1ccc(F)cc1)Nc1ccc(Cl)cc1` [CT-189, 1-(3-(4-fluorophenoxy)propyl)-3-(4-chlorophenyl)guanidine], in [1], the off-target liabilities result is “limited off-target liabilities”. The oral bioavailability result in data set [2] was “orally bioavailable”. Also, in [3], the “changes in mouse behavior” value was “no detectable changes” and the “changes in mouse body weight” value is recorded as “no detectable changes”. The “level of whitening of brown adipose tissue” value in data set [4] (HFD fed mice (8-week HFD), oral) was “significantly reduced”. In addition, the “level of liver fat” value in data set [4] (HFD fed mice, oral (PO 3 days per week)) is on record as “significantly reduced”. Also, the “level of TNFα” value in data set [5] is listed as “suppresses levels”. Besides, the “level of IL-17” value in data set [6] is “suppresses levels”. Besides, in [7], the Ki is 38 nM. Besides, in [8], the liver toxicity result is “does not induce liver toxicity”.

On to `N=C(Nc1ccc(I)cc1)NC1C2CC3CC(C2)CC1C3` (stereo not drawn) [IPAG, 1-(4-Iodophenyl)-3-(2-adamantyl)guanidine], for which the “lipid droplets (LDs)” value in data set [9] was “eliminates”. Also, the “oleic acid, cholesterol, and glucose induced lipid droplets” value in data set [10] is “eliminate”.
